EP0968998A1, “Cosmetic compositions, ceramide analogues with anti-elastase activity and process for their preparation” (ELF ATOCHEM S.A., priority 1998, dated 2000)

Tested on: stratum corneum
Assay: Skin hydration: capacitance measurement (Corneometer Courage+Khazaka CM 200), hydration index, cream applied to forearm
Assay type: in vivo, volontaires sains ayant une peau sèche
Conditions: cream with 0,5 % (ex. 7, témoins), 1 % (ex. 4, 8), 5 % (ex. 6)
From the text: Les exemples qui suivent permettent d'illustrer l'invention. […] Les valeurs sont exprimées en nombre d'onde par centimètre. - Résonance magnétique nucléaire (RMN) Les spectres sont réalisés au moyen d'un appareil BRUCKER DRX 500, à 500 MHz (^1H) et 125 MHz (^13C) dans le DMSO-d6. La calibration de l'appareil est effectuée au moyen de DMSO. Les déplacements chimiques sont exprimés en ppm. […] On utilise le N-succinyl-(Ala)3-p-nitroanilide en solution dans le tétrahydrofurane et une solution d'élastase à 100 mg/ml dans un mélange de glycérol et de tampon acétate de sodium (50/50; v/v), pH5. L'activité de l'enzyme est mesurée à 37°C dans 100 mM de tampon Tris-HCI, pH8 contenant 0,01 % de Triton X-100 (volume/volume) et 0,02 % d'azide de sodium (poids/volume). Le céramide à tester, solubilisé dans le tétrahydrofurane (concentration en THF = 0,5 % en volume) est préincubé en présence de l'enzyme (0,05 mg/ml) dans le tampon pendant 5 minutes à 37°C. On ajoute le N-succinyl-(Ala)3-p-nitroanilide (concentration finale : 250 µM) et on mesure la libération de la p-nitroaniline dans une cuve en quartz par spectrophotométrie à 410 nm. La capacité inhibitrice du céramide est exprimée en pourcentage d'inhibition (% I) selon la relation : %I = (1 -(Vi)/(Vo))×100 [formula] dans laquelle Vi et Vo sont les vitesses d'apparition de la p-nitroaniline en présence et en absence d'inhibiteur respectivement. - Mesure de l'amélioration de la barrière cutanée a) mesure de la Perte Insensible en Eau (PIE) La mesure de la PIE permet de quantifier la très faible quantité d'eau qui diffuse passivement à travers le stratum corneum. Ce paramètre représente un très bon index de la fonction barrière du stratum corneum. Cette méthode est surtout utilisée pour contrôler l'efficacité de formules cosmétiques qui, contenant certains types de lipides sont capables de diminuer la PIE et, en conséquence, d'empêcher la déshydratation du stratum corneum. La sonde est laissée en contact de la peau pendant 2 minutes environ de façon à atteindre une position d'équilibre. PIE = D'(dP)/(dx)(gradient de pression de vapeur) [formula] Les valeurs sont exprimées en g/m^2/heure et permettent de calculer un delta de PIE = PIE (peau traitée) - PIE (peau témoin). L'appareil utilisé est un Evaporimètre EPI de Servomed. Les mesures sont effectuées sur deux groupes de 15 volontaires sains ayant une peau sèche, avant l'application du produit (t=0) et après l'application (t=0,5 heure, 1 heure, 3 heures et 6 heures) sur la face interne des deux avant-bras. L'analogue de céramide selon l'invention ou le céramide témoin est incorporé dans une crème ayant la composition suivante (en % en poids) :
La teneur en analogue de céramide dans la crème est égale à 0,5 % (exemple 7), 1 % (exemples 4 et 8) et 5 % (exemple 6), et celle des céramides témoins (a) et (b) est égale à 0,5 %. La diminution des valeurs de PIE signifie une amélioration de la qualité de la barrière cutanée qui traduit un meilleur pouvoir retentionnel de l'eau au niveau de la couche cornée et donc une meilleure hydratation. b) hydratation cutanée L'eau peut être considérée comme un dipôle électrique capable de conduire l'électricité. Le transport d'électricité dans un champ donné est proportionnel à la quantité d'eau présente dans le stratum corneum. Plus une peau est riche en eau et plus le courant électrique passe rapidement entre 2 électrodes. Il existe donc un lien entre l'hydratation du stratum corneum et les modifications des propriétés électriques. Les mesures de capacitance, liée à la constante diélectrique de la peau, sont réalisées par le Cornéomètre Courage+Khazaka CM 200, dont la sonde présente une surface de contact avec la peau de 49 mm^2; cette sonde est appliquée avec une pression constante sur la surface cutanée à mesurer, et l'indice d'hydratation directement proportionnel au taux hydrique de surface est instantané.

CCCCCCCCCCCCCCCCCC(=O)NC(CC)(CO)COC(=O)CCCCCCCCCCCCCCCCC (centres unmarked) [Exemple 4, 1-stéaroyl-2-éthyl-2-stéaroylamino-1,3-propanediol]
Indice d'Hydratation (IH) M±s (t=0,5 heure after application): 66,87±7,50 | Indice d'Hydratation (IH) M±s (t=0 heure (before application, baseline)): 64,69±9,04 | Indice d'Hydratation (IH) M±s (t=1 heure after application): 65,56±6,96 | Indice d'Hydratation (IH) M±s (t=3 heures after application): 62,31±7,17 | Indice d'Hydratation (IH) M±s (t=6 heures after application): 62,91±7,78
